8 compounds from PubChem BioAssay (NCI) can be followed below.

Among the test systems are A498 renal; BT-549 breast; COLO 205 colon; M14 melanoma; MDA-MB-231 breast; NCI-H226 lung; OVCAR-8 ovarian; RPMI-8226 leukemia; SNB-19 CNS; OVCAR-4 ovarian.
Assay in all cases: NCI anticancer screen, dose series, 48 h

Structures are written as SMILES. Where “and” joins values, the source holds several entries; their conditions need not be identical. Equal entries are not always repeated.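 Five compound concentrations were applied to cells in 96-well plates for 48 hours; endpoints were derived by simple linear interpolation of the resulting dose-response curve. Here, GI50 denotes the concentration required for 50% inhibition of growth. Definition used: TGI = concentration required for complete inhibition of growth.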 *1 amine or outer side, *2 acyl side, *3 side chain or, on linkers, in order; H or OH if unused. Where a SMILES comes first, the peptide text is derived from it. [ ]: non-standard residue; d: D form. ξ: configuration not given here. X56 = CC[C@H](C)[C@H](OC(=O)[C@@H](C)[C@@H](CC)N[*:1])C(=O)[*:2]; X32 = C[C@H](N[*:1])C(=O)C(C)(C)C(=O)[*:2]; X21 = CC[C@@H](C)C(N[*:1])C(=O)[*:2]; NMeY = CN[C@@H](Cc1ccc(O)cc1)C(=O)O; NMeL = CN[C@@H](CC(C)C)C(=O)O; NMeV = CN[C@H](C(=O)O)C(C)C; ξR = N=C(N)NCCCC(N)C(=O)O; ξI = CCC(C)C(N)C(=O)O; ξL = CC(C)CC(N)C(=O)O; ξK = NCCCCC(N)C(=O)O; ξV = CC(C)C(N)C(=O)O; ξA = CC(N)C(=O)O

Consider `O=C1CS/C(=N\S(=O)(=O)c2ccc(N3N=C4c5ccccc5CC4C3c3ccc(Cl)cc3)cc2)N1c1ccccc1` (centres undefined), for which the GI50 in the assay on A498 renal is 25600 nM; in the assay with BT-549 breast, 35600 nM; in the assay with COLO 205 colon, 1730 nM; with M14 melanoma it was 59400 nM; in the assay on MDA-MB-231 breast it was 86000 nM; in the assay on NCI-H226 lung, 45100 nM. Further, the results for the GI50 in the assay with OVCAR-8 ovarian, in the assay with RPMI-8226 leukemia and in the assay on SNB-19 CNS were 34600 nM, 26400 nM and 23300 nM, respectively. Further, the TGI in the assay on A498 renal was 53000 nM; in the assay with BT-549 breast, more than 100000 nM; in the assay with COLO 205 colon, 16000 nM; with M14 melanoma, more than 100000 nM; in the assay with MDA-MB-231 breast, more than 100000 nM; in the assay on NCI-H226 lung, more than 100000 nM. The values for the TGI in the assay with OVCAR-8 ovarian, with RPMI-8226 leukemia and in the assay on SNB-19 CNS were more than 100000 nM, 88700 nM and more than 100000 nM, respectively.
As to `Cc1ccc(Sc2sc(-c3ccccc3)nc2[P+](c2ccccc2)(c2ccccc2)c2ccccc2)cc1`, the GI50 is 137 nM with A498 renal; 320 nM in the assay with BT-549 breast; 195 nM with COLO 205 colon; 326 nM in the assay with M14 melanoma; 251 nM in the assay with MDA-MB-231 breast; 305 nM in the assay on OVCAR-4 ovarian. Further, the results for the GI50 in the assay on OVCAR-8 ovarian, with RPMI-8226 leukemia and in the assay with SNB-19 CNS were 305 nM, 178 nM and 330 nM, respectively. Moreover, the TGI with A498 renal was 568 nM; in the assay with BT-549 breast it was 1180 nM; in the assay on COLO 205 colon, 412 nM; in the assay with M14 melanoma, 1300 nM; in the assay with MDA-MB-231 breast, 943 nM; in the assay with OVCAR-4 ovarian it was 1090 nM. Besides, the figures for the TGI with OVCAR-8 ovarian, in the assay on RPMI-8226 leukemia and in the assay on SNB-19 CNS were 1670 nM, 523 nM and 1330 nM, respectively.
As to `N#Cc1ccc2c(c1)C(=O)c1c-2n(CCCN)c(=O)c2cc([N+](=O)[O-])ccc12`, the GI50 was 1090 nM in the assay with A498 renal; 847 nM in the assay with BT-549 breast; 518 nM with COLO 205 colon; 467 nM in the assay with M14 melanoma; 1500 nM in the assay with MDA-MB-231 breast; 91.2 nM in the assay on OVCAR-4 ovarian. Further, the GI50 was 290 nM in the assay with OVCAR-8 ovarian, 99 nM with RPMI-8226 leukemia and 146 nM in the assay with SNB-19 CNS. In addition, the TGI came out at 2440 nM with A498 renal; 2290 nM with BT-549 breast; 2090 nM in the assay with COLO 205 colon; 2080 nM in the assay on M14 melanoma; 3040 nM in the assay with MDA-MB-231 breast; 257 nM with OVCAR-4 ovarian. Moreover, the TGI is 3620 nM in the assay on OVCAR-8 ovarian, 815 nM in the assay with RPMI-8226 leukemia and 1540 nM in the assay with SNB-19 CNS.
For the compound `CC(C)c1ccc(NC(=S)NC(=O)c2ccccc2)cc1`, the TGI in the assay with A498 renal was found to be 74100 nM; in the assay on BT-549 breast, 60600 nM; in the assay with COLO 205 colon it was 33600 nM; in the assay with M14 melanoma, 40700 nM; with MDA-MB-231 breast, 57000 nM; in the assay on OVCAR-4 ovarian, 55200 nM. Moreover, the TGI with OVCAR-8 ovarian, in the assay on RPMI-8226 leukemia and with SNB-19 CNS was more than 100000 nM each time.
Consider `CC[C@H](C)[C@@H]1OC(=O)[C@@H](C)[C@@H](CC)NC(=O)[C@H](C)NC(=O)C(C)(C)C(=O)[C@H](C)NC(=O)[C@H](Cc2ccc(OC)cc2)N(C)C(=O)[C@H](C(C)C)N(C)C(=O)CNC(=O)[C@H](CC(C)C)N(C)C(=O)CNC1=O` (cyclo(A[X56]G[NMeL]G[NMeV][NMeY](Me)[X32])), for which the GI50 with A498 renal is 39.8 nM; in the assay with COLO 205 colon, 34 nM; in the assay with M14 melanoma, 40.3 nM; in the assay on NCI-H226 lung, 73.1 nM; in the assay with OVCAR-8 ovarian it was 33.5 nM; in the assay with RPMI-8226 leukemia it was 26.3 nM. Also, the GI50 with SNB-19 CNS was 211 nM. Also, the TGI is 1380 nM and 197 nM with A498 renal; 280 nM with BT-549 breast; more than 33300 nM with COLO 205 colon; 2020 nM and 786 nM with M14 melanoma; 792 nM in the assay with MDA-MB-231 breast; 3750 nM and 1060 nM in the assay on NCI-H226 lung. The TGI in the assay with OVCAR-8 ovarian is 1450 nM; in the assay with RPMI-8226 leukemia, 3380 nM; in the assay with SNB-19 CNS it was 492 nM and 688 nM.
Turning to `O=C1CCS/C(=N\S(=O)(=O)c2ccc(N3N=C4c5ccccc5CC4C3c3cccs3)cc2)N1C(=O)c1ccccc1` (centres undefined), the GI50 was 4770 nM in the assay on BT-549 breast; 66500 nM with COLO 205 colon; 10800 nM with M14 melanoma; 5770 nM in the assay on MDA-MB-231 breast; 15900 nM in the assay on NCI-H226 lung; more than 100000 nM with OVCAR-4 ovarian. In addition, the GI50 in the assay with OVCAR-8 ovarian was 816 nM; in the assay with RPMI-8226 leukemia it was 5860 nM; with SNB-19 CNS, 45700 nM. For the same compound, the TGI in the assay with BT-549 breast was more than 100000 nM; with COLO 205 colon, more than 100000 nM; with M14 melanoma, 27200 nM; with MDA-MB-231 breast, 26800 nM; in the assay on NCI-H226 lung, 41000 nM; in the assay on OVCAR-4 ovarian, more than 100000 nM. The values for the TGI in the assay on OVCAR-8 ovarian, in the assay with RPMI-8226 leukemia and with SNB-19 CNS were 17500 nM, more than 100000 nM and more than 100000 nM, respectively.
Regarding `CCC(C)C1NC(=O)C(CC(C)C)NC(=O)C(C)NC(=O)C(C(C)C)NC(=O)C(CCCCN)NC(=O)C(CC(C)C)NC(=O)C(C(C)C)NC(=O)[C@H](C)NC(=O)C(C(C)CC)NC(=O)C(CCCN=C(N)N)NC(=O)C(CCCCN)NC(=O)C(CCCN=C(N)N)NC(=O)C(CCCCN)NC(=O)C([C@H](C)CC)NC(=O)C(CCCCN)NC1=O` (some centres undefined) (cyclo(A[ξV][ξL][ξK][ξV][ξA][ξL][ξI][ξK][X21][ξK][ξR][ξK][ξR][ξI])), the GI50 is 1150 nM in the assay on A498 renal; 1560 nM in the assay with BT-549 breast; 1490 nM in the assay on COLO 205 colon; 1500 nM in the assay with M14 melanoma; 1620 nM in the assay with MDA-MB-231 breast; 720 nM in the assay with OVCAR-4 ovarian. In addition, the values for the GI50 in the assay with OVCAR-8 ovarian, in the assay on RPMI-8226 leukemia and in the assay with SNB-19 CNS were 1480 nM, 305 nM and 2070 nM, respectively. In addition, the TGI in the assay with A498 renal stood at 2820 nM; in the assay with BT-549 breast, 3420 nM; in the assay on COLO 205 colon it was 3850 nM; with M14 melanoma, 3130 nM; in the assay on MDA-MB-231 breast, 3730 nM; with OVCAR-4 ovarian, 10200 nM. Further, the results for the TGI in the assay with OVCAR-8 ovarian, with RPMI-8226 leukemia and with SNB-19 CNS were 4870 nM, 1130 nM and 10100 nM, respectively.
In the case of `O=[N+]([O-])c1ccc2nc3ccccc3cc2c1`, the TGI with A498 renal was 3270 nM; with BT-549 breast, 21700 nM; with COLO 205 colon, 14900 nM; in the assay with M14 melanoma, 18100 nM; with MDA-MB-231 breast, 8640 nM; in the assay on NCI-H226 lung, 8970 nM. Further, the TGI was found to be 10400 nM with OVCAR-4 ovarian, 2580 nM in the assay with OVCAR-8 ovarian and 12900 nM in the assay on SNB-19 CNS.
